According to patent US9181253B2 (The United States of America, as represented by the …, priority 2008, dated 2015):

Columns and labels:
hA1AR [1] = target: T1, hA1AR (Homo sapiens (Human), UniProt P30542); experiment: Radioligand membrane binding at hA1AR (Example 6); conditions: for (% inhibition) A1: percent inhibition of radioligand binding at 10 μM; for Ki: CHO cells expressing hA1AR, [3H]R-PIA, n = 3-5, read-out: Affinity Ki, nM A1; for inhibition at 10 µM: read-out: (% inhibition) A1
Method: (§1) In addition, 800 μg/mL Geneticin and 500 μg/mL hygromycin were added to the A2A media and to the A1 and A3 media, respectively. […] The concentration of protein was determined using a BCA Protein Assay Kit from Pierce Biotechnology (Rockford, Ill.).
(§2) Radioligand binding assays at A1, A2A, and A3ARs were performed according to the procedures described previously.
(§3) All of the filters were washed 3 times with Tris-HCl, pH 7.5. […] Filters for A3AR binding were counted using a PerkinElmer Cobra II γ-counter.
(§4) Binding and functional parameters were calculated using Prism 5.0 software (GraphPAD, San Diego, Calif., USA). IC50 values obtained from competition curves were converted to Ki values using the Cheng-Prusoff equation. Data were expressed as mean±standard error.

hA2AAR = hA2AAR (Homo sapiens (Human), UniProt P29274); experiment: Radioligand membrane binding at hA2AAR (Example 6); conditions: for (% inhibition) A2A: percent inhibition of radioligand binding at 10 μM; for Ki: HEK293 cells expressing hA2AAR, [3H]CGS21680, n = 3-5, read-out: Affinity Ki, nM A2A; for inhibition at 10 µM: read-out: (% inhibition) A2A
Sequence of hA2AAR (P29274 whole entry): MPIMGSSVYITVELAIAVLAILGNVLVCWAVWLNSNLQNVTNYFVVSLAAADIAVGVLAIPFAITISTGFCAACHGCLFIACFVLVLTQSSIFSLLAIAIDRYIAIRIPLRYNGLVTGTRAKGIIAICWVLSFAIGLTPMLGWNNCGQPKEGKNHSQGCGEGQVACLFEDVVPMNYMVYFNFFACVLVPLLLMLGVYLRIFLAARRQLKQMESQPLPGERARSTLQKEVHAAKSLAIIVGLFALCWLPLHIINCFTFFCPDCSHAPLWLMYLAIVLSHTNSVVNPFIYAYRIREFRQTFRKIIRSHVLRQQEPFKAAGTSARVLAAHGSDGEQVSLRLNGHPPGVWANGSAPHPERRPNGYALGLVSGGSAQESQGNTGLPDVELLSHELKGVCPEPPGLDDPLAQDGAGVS
Method: as §1, §2, §3, §4

hA1AR [2] = target: T1, hA1AR; experiment: A1AR functional assay, inhibition of forskolin-stimulated cyclic AMP production in AR-transfected CHO cells; type: cell-based; conditions: for % Inhibition, cyclic AMP A1: maximal efficacy at 10 μM, in comparison to effect (100%) of full agonist CPA at 10 μM, n = 3-5; for inhibition at 10 µM: CHO, read-out: % Inhibition, cyclic AMP A1
Method: CHO cells that expressed the recombinant human or rat A3AR or the human A1 or A2BAR were harvested by trypsinization. After centrifugation and resuspended in medium, cells were planted in 24-well plates in 1.0 mL medium. […] The reaction was terminated by removing the supernatant, and cells were lysed upon the addition of 200 μL of 0.1 M ice-cold HCl. The cell lysate was resuspended and stored at −20° C. For determination of cyclic AMP production, protein kinase A (PKA) was incubated with [^3H]cyclic AMP (2 nM) in K2HPO4/EDTA buffer (K2HPO4, 150 mM; EDTA, 10 mM), 20 μL of the cell lysate, and 30 μL 0.1 M HCl or 50 μL of cyclic AMP solution (0-16 pmol/200 μL for standard curve). Bound radioactivity was separated by rapid filtration through Whatman GF/C filters and washed once with cold buffer. Bound radioactivity was measured by liquid scintillation spectrometry.
Intracellular cAMP levels were measured with a competitive protein binding method.

hA3AR = hA3AR (Homo sapiens (Human), UniProt P0DMS8); experiment: Radioligand membrane binding at hA3AR (Example 6); conditions: for Ki: CHO cells expressing hA3AR, [125I]I-AB-MECA, n = 3-5, read-out: Affinity Ki, nM A3
Sequence of hA3AR (P0DMS8 whole entry): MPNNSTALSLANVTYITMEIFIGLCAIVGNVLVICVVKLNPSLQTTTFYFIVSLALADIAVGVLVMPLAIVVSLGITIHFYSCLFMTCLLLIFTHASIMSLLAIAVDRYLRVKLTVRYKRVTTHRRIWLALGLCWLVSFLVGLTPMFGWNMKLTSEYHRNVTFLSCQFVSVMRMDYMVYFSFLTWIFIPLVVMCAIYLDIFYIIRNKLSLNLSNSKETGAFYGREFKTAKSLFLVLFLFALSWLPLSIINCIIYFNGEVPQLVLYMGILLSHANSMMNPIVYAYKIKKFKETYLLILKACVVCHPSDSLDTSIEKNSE
Method: Chinese hamster ovary (CHO) cells stably expressing either the recombinant hA1 or hA3AR and human embryonic kidney (HEK) 293 cells stably expressing the human (h) A2AAR were cultured in DMEM and F12 (1:1), supplemented with 10% fetal bovine serum, 100 units/mL penicillin, 100 μg/mL streptomycin, and 2 μmol/mL glutamine. In addition, 800 μg/mL Geneticin and 500 μg/mL hygromycin were added to the A2A media and to the A1 and A3 media, respectively. […] The concentration of protein was determined using a BCA Protein Assay Kit from Pierce Biotechnology (Rockford, Ill.).
The mixtures were incubated at 25° C. for 60 min. Binding reactions were terminated by filtration through Whatman GF/B filters under a reduced pressure using a MT-24 cell harvester (Brandell, Gaithersburg, Md.). Filters were washed three times with 5 ml of 50 mM ice-cold Tris-HCl buffer (pH 7.5). […] All of the filters were washed 3 times with Tris-HCl, pH 7.5. […] Filters for A3AR binding were counted using a PerkinElmer Cobra II γ-counter.

T1 sequence (P30542 whole entry): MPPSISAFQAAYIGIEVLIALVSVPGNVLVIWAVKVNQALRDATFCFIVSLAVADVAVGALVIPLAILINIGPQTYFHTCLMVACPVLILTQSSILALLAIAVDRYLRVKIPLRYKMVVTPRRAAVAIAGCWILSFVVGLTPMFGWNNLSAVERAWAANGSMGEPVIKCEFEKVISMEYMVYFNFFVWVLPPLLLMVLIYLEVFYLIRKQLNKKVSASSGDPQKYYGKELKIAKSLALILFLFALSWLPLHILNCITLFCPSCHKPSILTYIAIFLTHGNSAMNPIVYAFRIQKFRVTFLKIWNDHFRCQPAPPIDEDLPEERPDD

Compound | Ki (hA1AR [1]) [nM] | Ki (hA2AAR) [nM] | Ki (hA3AR) [nM] | inhibition at 10 µM (hA1AR [2]) [%] | other results
O[C@@H]1[C@H](O)[C@@H]2C[C@@H]2[C@H]1n1cnc2c(N[C@H](c3ccccc3)C3CC3)nc(Cl)nc21 [Compound 221, (1R,2R,3S,4R,5S)-4-(2-Chloro-6-((S)-cyclopropylphenylmethylamino)-9H-purin-9-yl)bicyclo[3.1.0]hexane-2,3-diol] | – | – | – | – | (% inhibition) A1 (hA1AR [1]): (50 ± 5%); (% inhibition) A2A (hA2AAR): (36 ± 4%); % Inhibition, cyclic AMP A1 (hA1AR [2]): −2.4 ± 3.7%
(1R,2R,3S,4R,5S)-4-(2-Chloro-6-(endo-norbornyl)-9H-purin-9-yl)bicyclo[3.1.0]hexane-2,3-diol [Compound 113] | 82.6 ± 15.8 | 2450 ± 90 | 315 ± 48 | – | % Inhibition, cyclic AMP A1 (hA1AR [2]): 62.1 ± 18.5%
O[C@@H]1[C@H](O)[C@@H]2C[C@@H]2[C@H]1n1cnc2c(NCc3ccccc3F)nc(Cl)nc21 [Compound 122, (1R,2R,3S,4R,5S)-4-(2-Chloro-6-(2-fluorobenzylamino)-9H-purin-9-yl)bicyclo[3.1.0]hexane-2,3-diol] | 4790 ± 670 | – | 41.5 ± 1 | – | –
O[C@@H]1[C@H](O)[C@@H]2C[C@@H]2[C@H]1n1cnc2c(NC3CCC3)nc(Cl)nc21 [Compound 109, (1R,2R,3S,4R,5S)-4-(2-Chloro-6-(cyclobutylamino)-9H-purin-9-yl)bicyclo[3.1.0]hexane-2,3-diol] | 51.6 ± 12.6 | 3020 ± 90 | 5.9 ± 0.5 | – | –
O[C@@H]1[C@H](O)[C@@H]2C[C@@H]2[C@H]1n1cnc2c(NCc3cc(F)ccc3F)nc(Cl)nc21 [Compound 125, (1R,2R,3S,4R,5S)-4-(2-chloro-6-(2,5-difluorobenzylamino)-9H-purin-9-yl)bicyclo[3.1.0]hexane-2,3-diol] | 3580 ± 220 | – | 114 ± 45 | – | inhibition at 10 µM (hA2AAR): 46%
CC(C)[C@H](Nc1nc(Cl)nc2c1ncn2[C@H]1[C@H](O)[C@H](O)[C@@H]2C[C@@H]21)C1CC1 [Compound 215, (1R,2R,3S,4R,5S)-4-(2-Chloro-6-((S)-1-cyclopropyl-2-methyl-propylamino)-9H-purin-9-yl)bicyclo[3.1.0]hexane-2,3-diol] | 150 ± 50 | 3650 ± 370 | 1720 ± 140 | 20.8 ± 6.1 | –
O[C@@H]1[C@H](O)[C@@H]2C[C@@H]2[C@H]1n1cnc2c(N[C@@H](C3CCC3)C3CC3)nc(Cl)nc21 [Compound 216, (1R,2R,3S,4R,5S)-4-(2-Chloro-6-((R)-cyclopropylcyclobutylmethylamino)-9H-purin-9-yl)bicyclo[3.1.0]hexane-2,3-diol] | 270 ± 60 | 5470 ± 300 | 2930 ± 480 | – | % Inhibition, cyclic AMP A1 (hA1AR [2]): 33.4 ± 5.2%
OC[C@H]1O[C@@H](n2cnc3c(NC4CCCC4)ncnc32)[C@H](O)[C@@H]1O [Compound 235a, N^6-cyclopentyladenosine, reference compound] | – | – | – | – | % Inhibition, cyclic AMP A1 (hA1AR [2]): 100 ± 2.6%
O[C@@H]1[C@H](O)[C@@H]2C[C@@H]2[C@H]1n1cnc2c(NCCCF)nc(Cl)nc21 [Compound 116, (1R,2R,3S,4R,5S)-4-(2-Chloro-6-(3-fluoropropylamino)-9H-purin-9-yl)bicyclo[3.1.0]hexane-2,3-diol] | 72.7 ± 28 | – | 32.4 ± 6.7 | 23.2 ± 2.6 | –
OCc1cc(F)c(F)cc1CNc1nc(Cl)nc2c1ncn2[C@@]12C[C@H](O)[C@H](O)[C@@H]1C2 [Compound 128] | 1910 ± 310 | 7510 ± 690 | 40.4 ± 13.1 | – | –
O[C@@H]1[C@H](O)[C@@H]2C[C@@H]2[C@H]1n1cnc2c(N[C@H](C3CCC3)C3CC3)nc(Cl)nc21 [Compound 217, (1R,2R,3S,4R,5S)-4-(2-Chloro-6-((S)-cyclopropylcyclobutylmethylamino)-9H-purin-9-yl)bicyclo[3.1.0]hexane-2,3-diol] | 120 ± 40 | 6450 ± 720 | 2790 ± 720 | – | % Inhibition, cyclic AMP A1 (hA1AR [2]): 18.1 ± 6.8%
O[C@@H]1[C@H](O)[C@@H]2C[C@@H]2[C@H]1n1cnc2c(N[C@@H](c3ccccc3)C3CC3)nc(Cl)nc21 [Compound 220, (1R,2R,3S,4R,5S)-4-(2-Chloro-6-((R)-cyclopropylphenylmethylamino)-9H-purin-9-yl)bicyclo[3.1.0]hexane-2,3-diol] | 3000 ± 440 | – | – | – | (% inhibition) A2A (hA2AAR): (46 ± 4%); % Inhibition, cyclic AMP A1 (hA1AR [2]): −7.4 ± 6.0%
O[C@@H]1[C@H](O)[C@@H]2C[C@@H]2[C@H]1n1cnc2c(NC(C3CCCC3)C3CCCC3)nc(Cl)nc21 [Compound 211, (1R,2R,3S,4R,55)-4-(2-Chloro-6-(dicyclopentylmethylamino)-9H-purin-9-yl)bicyclo[3.1.0]hexane-2,3-diol] | – | – | – | – | (% inhibition) A1 (hA1AR [1]): (34 ± 3%); (% inhibition) A2A (hA2AAR): (13 ± 3%); (% inhibition) A3 (hA3AR; percent inhibition of radioligand binding at 10 μM): (48 ± 2%)
O[C@@H]1[C@H](O)[C@@H]2C[C@@H]2[C@H]1n1cnc2c(NC3CCCCCCC3)nc(Cl)nc21 [Compound 112, (1R,2R,3S,4R,5S)-4-(2-Chloro-6-(cyclooctylamino)-9H-purin-9-yl)bicyclo[3.1.0]hexane-2,3-diol] | 760 ± 110 | – | 1530 ± 60 | 40.1 ± 9 | –
O[C@@H]1[C@H](O)[C@@H]2C[C@@H]2[C@H]1n1cnc2c(NC3CCCCCC3)nc(Cl)nc21 [Compound 111, (1R,2R,3S,4R,5S)-4-(2-Chloro-6-(cycloheptylamino)-9H-purin-9-yl)bicyclo[3.1.0]hexane-2,3-diol] | 230 ± 30 | 3930 ± 520 | 560 ± 90 | 48.1 ± 10.2 | –
CC[C@@H](Nc1nc(Cl)nc2c1ncn2[C@H]1[C@H](O)[C@H](O)[C@@H]2C[C@@H]21)C1CC1 [Compound 212, (1R,2R,3S,4R,5S)-4-(2-Chloro-6-((R)-1-cyclopropylpropylamino)-9H-purin-9-yl)bicyclo[3.1.0]hexane-2,3-diol] | 68.1 ± 5 | 3610 ± 500 | 150 ± 2 | 37.3 ± 4.3 | –
O[C@@H]1[C@H](O)[C@@H]2C[C@@H]2[C@H]1n1cnc2c(NC3CC3)nc(Cl)nc21 [Compound 108, (1R,2R,3S,4R,5S)-4-(2-Chloro-6-(cyclopropylamino)-9H-purin-9-yl)bicyclo[3.1.0]hexane-2,3-diol] | 210 ± 30 | 3700 ± 340 | 12.1 ± 3.4 | 79 ± 18.8 | –
COc1cc(F)c(F)cc1CNc1nc(Cl)nc2c1ncn2[C@H]1[C@H](O)[C@H](O)[C@@H]2C[C@@H]21 [Compound 127, (1R,2R,3S,4R,5S)-4-(2-chloro-6-(4,5-difluoro-2-methoxybenzylamino)-9H-purin-9-yl)bicyclo[3.1.0]hexane-2,3-diol] | – | – | 83.2 ± 35.7 | – | inhibition at 10 µM (hA1AR [1]): 41%; inhibition at 10 µM (hA2AAR): 30%
CC(Nc1nc(Cl)nc2c1ncn2[C@H]1[C@H](O)[C@H](O)[C@@H]2C[C@@H]21)C1CC1 (stereo partly drawn) [Compound 120, (1R,2R,3S,4R,5S)-4-(2-Chloro-6-(1-cyclopropylethylamino)-9H-purin-9-yl)bicyclo[3.1.0]hexane-2,3-diol] | 86.8 ± 23.7 | – | 110 ± 17 | – | (% inhibition) A2A (hA2AAR): (41%)
O[C@@H]1[C@H](O)[C@@H]2C[C@@H]2[C@H]1n1cnc2c(N[C@@H](CC3CC3)C3CC3)nc(Cl)nc21 [Compound 219, (1R,2R,3S,4R,5S)-4-(2-Chloro-6-((S)-1,2-dicyclopropylethylamino)-9H-purin-9-yl)bicyclo[3.1.0]hexane-2,3-diol] | 170 ± 20 | 2550 ± 170 | 550 ± 50 | 24 ± 5.2 | –
O[C@@H]1[C@H](O)[C@@H]2C[C@@H]2[C@H]1n1cnc2c(NCC(C3CC3)C3CC3)nc(Cl)nc21 [Compound 207, (1R,2R,3S,4R,5S)-4-(2-Chloro-6-(2,2-dicyclopropylethylamino)-9H-purin-9-yl)bicyclo[3.1.0]hexane-2,3-diol] | 780 ± 100 | – | 670 ± 10 | -9 ± 4.1 | –
O[C@@H]1[C@H](O)[C@@H]2C[C@@H]2[C@H]1n1cnc2c(NCc3cccc(OCCF)c3)nc(Cl)nc21 [Compound 124, (1R,2R,3S,4R,5S)-4-(2-chloro-6-(3-(2-fluoroethoxy)benzylamino)-9H-purin-9-yl)bicyclo[3.1.0]hexane-2,3-diol] | – | – | 15.2 ± 3 | – | inhibition at 10 µM (hA1AR [1]): 34%; inhibition at 10 µM (hA2AAR): 32%
COc1ccc(F)c(F)c1CNc1nc(Cl)nc2c1ncn2[C@H]1[C@H](O)[C@H](O)[C@@H]2C[C@@H]21 [Compound 126, (1R,2R,3S,4R,5S)-4-(2-chloro-6-(2,3-difluoro-6-methoxybenzylamino)-9H-purin-9-yl)bicyclo[3.1.0]hexane-2,3-diol] | 1260 ± 240 | – | 16.5 ± 2.8 | – | inhibition at 10 µM (hA2AAR): 38%
O[C@@H]1[C@H](O)[C@@H]2C[C@@H]2[C@H]1n1cnc2c(NCc3ccccc3OCCF)nc(Cl)nc21 [Compound 123, (1R,2R,3S,4R,5S)-4-(2-chloro-6-(2-(2-fluoroethoxy)benzylamino)-9H-purin-9-yl)bicyclo[3.1.0]hexane-2,3-diol] | – | – | 10.3 ± 1.5 | – | –
CCNc1nc(Cl)nc2c1ncn2[C@H]1[C@H](O)[C@H](O)[C@@H]2C[C@@H]21 [Compound 115, (1R,2R,3S,4R,5S)-4-(2-Chloro-6-(ethylamino)-9H-purin-9-yl)bicyclo[3.1.0]hexane-2,3-diol] | 930 ± 110 | – | 6.6 ± 1.6 | – | (% inhibition) A2A (hA2AAR): (11%)
